The supplement of paper PMC13380429

Tests used:
[1] = test system: A549-ACE2 infected with SARS-CoV-2; experiment: cell count relative to DMSO; higher = less toxic; conditions: 24 h
[2] = test system: Calu-3; experiment: cell viability relative to DMSO; higher = less toxic; conditions: 72 h
[3] = test system: Caco-2; experiment: as above; conditions: 72 h
[4] = test system: Vero E6; experiment: as above; conditions: 72 h
[5] = test system: U2OS; experiment: as above; conditions: 72 h
[6] = test system: HepG2; experiment: as above; conditions: 72 h
[7] = test system: Calu-3; experiment: drug sensitivity score (DSS) for viability; higher = more toxic; extreme values may be limits of the assay; conditions: 72 h
[8] = test system: Caco-2; experiment: as above; conditions: 72 h
[9] = test system: Vero E6; experiment: as above; conditions: 72 h
[10] = test system: U2OS; experiment: as above; conditions: 72 h
[11] = test system: HepG2; experiment: as above; conditions: 72 h
[12] = test system: A549-ACE2; experiment: drug-induced phospholipidosis relative to tamoxifen; higher = more phospholipidosis
[13] = test system: A549-ACE2 infected with SARS-CoV-2; experiment: SARS-CoV-2 infection rate relative to DMSO; higher = more infection; conditions: 24 h
[14] = test system: A549-ACE2 infected with SARS-CoV-2; experiment: morphology score (similarity to uninfected cells); higher = more like uninfected cells; conditions: 24 h
[15] = test system: Calu-3; experiment: relative viability EC50 (midpoint between 100% and the lowest measured viability); higher = less toxic; conditions: 72 h
[16] = test system: Vero E6; experiment: as above; conditions: 72 h
[17] = test system: U2OS; experiment: as above; conditions: 72 h
[18] = test system: A549-ACE2; experiment: phospholipidosis EC50; higher = less potent phospholipidosis inducer
[19] = test system: Caco-2; experiment: relative viability EC50 (midpoint between 100% and the lowest measured viability); higher = less toxic; conditions: 72 h
[20] = test system: HepG2; experiment: as above; conditions: 72 h

Cc1nc(Nc2ccc(F)cc2)nc(N2CCc3ccccc3C2C)c1C (stereo not given) [revaprazan]
Conditions | SARS-CoV-2 infection rate, [13] [%] | cell count, [1] [%] | cell viability, [2] [%] | cell viability, [3] [%] | cell viability, [4] [%] | cell viability, [5] [%] | cell viability, [6] [%] | morphology score, [14]
1 nM | – | – | 97.5 | 98.3 | 90.2 | 101 | 98.2 | –
10 nM | – | – | 102 | 96.7 | 106 | 100 | 106 | –
100 nM | – | – | 106 | 104 | 92.7 | 102 | 96.3 | –
0.3 µM | 91 | 105 | – | – | – | – | – | 0.16
1000 nM | – | – | 92 | 97.6 | 98.1 | 97.1 | 110 | –
3 µM | 61 | 110 | – | – | – | – | – | 0.59
10 µM | 33 | 115 | – | – | – | – | – | 0.78
10000 nM | – | – | 99.8 | 71.6 | 95.8 | 81.5 | 60.4 | –
30 µM | 19 | 99 | – | – | – | – | – | 0.77

Conditions | drug sensitivity score | relative viability EC50 [µM]
[7] | 0 | –
[8] | 1.6 | –
[9] | 0 | –
[10] | 0.8 | –
[11] | 1.5 | –
[15] | – | > 10
[16] | – | > 10
[17] | – | > 10

drug-induced phospholipidosis [%], [12]
Conditions | 0.3 µM | 0.833333 µM | 3.33333 µM | 6.66667 µM | 10 µM | 30 µM
24 h | 0.84 | 3.77 | 8.66 | 7.71 | 18.8 | 34.5
48 h | 2.14 | 1.27 | 2.71 | 2.07 | 8.48 | 17.2
72 h | 2.77 | -0.285 | 3.45 | 3.85 | 13.8 | 30.9

CCCCCCCCNC(C)C(O)c1ccc(SC(C)C)cc1 (stereo not given) [suloctidil]
Conditions | SARS-CoV-2 infection rate [%] | cell count [%] | cell viability [%] | morphology score | phospholipidosis EC50 [µM]
[1], 0.3 µM | – | 102 | – | – | –
[1], 3 µM | – | 112 | – | – | –
[1], 10 µM | – | 122 | – | – | –
[1], 30 µM | – | 65 | – | – | –
[2], 1 nM | – | – | 99.4 | – | –
[2], 10 nM | – | – | 97.1 | – | –
[2], 100 nM | – | – | 107 | – | –
[2], 1000 nM | – | – | 57 | – | –
[2], 10000 nM | – | – | -0.5 | – | –
[3], 1 nM | – | – | 105 | – | –
[3], 10 nM | – | – | 97.3 | – | –
[3], 100 nM | – | – | 99.4 | – | –
[3], 1000 nM | – | – | 101 | – | –
[3], 10000 nM | – | – | 92.6 | – | –
[4], 1 nM | – | – | 93.8 | – | –
[4], 10 nM | – | – | 98.3 | – | –
[4], 100 nM | – | – | 93 | – | –
[4], 1000 nM | – | – | 98.3 | – | –
[4], 10000 nM | – | – | 97.4 | – | –
[5], 1 nM | – | – | 98.2 | – | –
[5], 10 nM | – | – | 95 | – | –
[5], 100 nM | – | – | 99.7 | – | –
[5], 1000 nM | – | – | 95.5 | – | –
[5], 10000 nM | – | – | 64.5 | – | –
[6], 1 nM | – | – | 98.7 | – | –
[6], 10 nM | – | – | 109 | – | –
[6], 100 nM | – | – | 98.5 | – | –
[6], 1000 nM | – | – | 119 | – | –
[6], 10000 nM | – | – | 102 | – | –
[13], 0.3 µM | 99 | – | – | – | –
[13], 3 µM | 83 | – | – | – | –
[13], 10 µM | 26 | – | – | – | –
[13], 30 µM | 25 | – | – | – | –
[14], 0.3 µM | – | – | – | 0.02 | –
[14], 3 µM | – | – | – | 0.31 | –
[14], 10 µM | – | – | – | 0.74 | –
[14], 30 µM | – | – | – | 0.13 | –
[18], 24 h | – | – | – | – | 7.11
[18], 48 h | – | – | – | – | 9.12
[18], 72 h | – | – | – | – | 12.5

Conditions | drug sensitivity score | relative viability EC50 [µM]
[7] | 11.1 | –
[8] | 0 | –
[9] | 0 | –
[10] | 2.4 | –
[11] | 0 | –
[15] | – | 1.12
[16] | – | > 10
[19] | – | > 10
[20] | – | > 10

drug-induced phospholipidosis [%], [12]
Conditions | 0.3 µM | 0.833333 µM | 3.33333 µM | 6.66667 µM | 10 µM | 30 µM
24 h | 2.27 | 1.81 | 10.5 | 42.2 | 60 | 84.3
48 h | 4.05 | 0.83 | 9.1 | 35.5 | 57 | 95.6
72 h | 3.93 | -1.43 | 8.76 | 31.3 | 53.9 | 114

O=C(CCCCCCC(=O)Nc1ccccc1)NO [vorinostat]
cell viability [%]
Conditions | [2] | [3] | [4] | [5] | [6]
1 nM | 96.1 | 89.9 | 99.5 | 97.4 | 111
10 nM | 96.9 | 99.9 | 99.5 | 96.3 | 98.2
100 nM | 87.2 | 93.9 | 103 | 94.9 | 98.1
1000 nM | 62.1 | 93.9 | 88.9 | 79.5 | 69.8
10000 nM | 20.2 | 2.5 | 0.3 | 2.2 | 3

Conditions | drug sensitivity score | relative viability EC50 [µM]
[7] | 9.1 | –
[8] | 6.3 | –
[9] | 7.3 | –
[10] | 8.7 | –
[11] | 9.7 | –
[15] | – | 0.91
[16] | – | 2.25
[17] | – | 1.7
[19] | – | 2.66
[20] | – | 1.37
